From ChEMBL document CHEMBL1201862, “PubChem BioAssay data set” (2004)
Calls of active or inactive are those of the source.

Assays:
[1] = target: Beta-adrenergic receptor kinase 1 (Homo sapiens, UniProt P25098); assay: blockers of aptamer binding to GRK2 – biochemical, flow cytometry beads, FAM-aptamer, powder set 1, dose response (AID 588720)
[2] = target: T1, Carboxy-terminal domain RNA polymerase II polypeptide A small phosphatase 1 (Homo sapiens, UniProt Q9GZU7); assay: CTDSP1 inhibitors, concentration-response, biochemical, absorbance readout, ultra-high-throughput screen actives (AID 540297); assay type: functional
T1 sequence (Q9GZU7 whole entry): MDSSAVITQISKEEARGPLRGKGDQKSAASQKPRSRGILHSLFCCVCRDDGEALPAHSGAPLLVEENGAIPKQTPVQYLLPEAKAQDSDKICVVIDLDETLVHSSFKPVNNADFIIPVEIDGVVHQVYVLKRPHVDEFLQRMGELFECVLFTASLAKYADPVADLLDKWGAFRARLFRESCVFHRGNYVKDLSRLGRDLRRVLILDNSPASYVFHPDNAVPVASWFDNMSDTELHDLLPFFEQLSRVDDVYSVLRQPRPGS

Cytochrome P450 2D6 = Cytochrome P450 2D6 (Homo sapiens, UniProt P10635);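 note: CYP2D6 member of a cytochrome P450 panel assay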
Chain of Cytochrome P450 2D6 (P10635 whole entry): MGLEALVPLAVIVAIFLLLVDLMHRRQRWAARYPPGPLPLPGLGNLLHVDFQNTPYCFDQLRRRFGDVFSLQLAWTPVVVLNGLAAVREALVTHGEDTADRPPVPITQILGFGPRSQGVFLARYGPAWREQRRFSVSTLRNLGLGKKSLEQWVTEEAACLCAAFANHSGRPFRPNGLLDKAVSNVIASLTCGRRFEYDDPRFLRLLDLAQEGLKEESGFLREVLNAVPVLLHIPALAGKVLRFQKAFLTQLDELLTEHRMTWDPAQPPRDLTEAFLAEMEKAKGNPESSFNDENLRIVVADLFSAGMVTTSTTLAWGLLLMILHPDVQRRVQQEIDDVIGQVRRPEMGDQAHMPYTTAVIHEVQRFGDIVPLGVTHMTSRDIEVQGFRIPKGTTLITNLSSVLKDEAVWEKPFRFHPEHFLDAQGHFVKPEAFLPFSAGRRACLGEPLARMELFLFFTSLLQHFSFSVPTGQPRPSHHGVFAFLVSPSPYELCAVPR

[3] = Luminescence Cell-Based Dose Retest to Confirm Inhibitors of Cancer Stem Cells. [Related pubchem assays (depositor defined):AID2717, AID2721]; assay type: functional; conditions: Homo sapiens
Cytochrome P450 2C19 = Cytochrome P450 2C19 (Homo sapiens, UniProt P33261); assay: Cytochrome panel assay with activity outcomes. Panel member name: p450-cyp2c19 Compounds with AC50 equal or less than 10 uM are considered active; assay type: functional; conditions: read-out: AC50
Chain of Cytochrome P450 2C19 (P33261 whole entry): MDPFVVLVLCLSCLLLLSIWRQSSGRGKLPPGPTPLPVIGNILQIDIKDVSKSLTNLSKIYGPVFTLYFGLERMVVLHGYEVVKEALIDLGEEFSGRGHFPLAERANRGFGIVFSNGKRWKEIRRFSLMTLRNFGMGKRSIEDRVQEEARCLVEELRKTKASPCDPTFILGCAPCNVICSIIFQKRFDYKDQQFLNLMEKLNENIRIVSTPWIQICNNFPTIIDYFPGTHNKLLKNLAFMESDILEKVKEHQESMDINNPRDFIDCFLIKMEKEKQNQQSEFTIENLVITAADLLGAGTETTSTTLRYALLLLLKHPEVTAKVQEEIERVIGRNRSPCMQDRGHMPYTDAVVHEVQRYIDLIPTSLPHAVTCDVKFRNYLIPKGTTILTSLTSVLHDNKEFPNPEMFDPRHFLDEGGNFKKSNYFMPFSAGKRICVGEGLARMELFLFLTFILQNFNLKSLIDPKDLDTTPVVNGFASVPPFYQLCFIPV

Cytochrome P450 2C9 = Cytochrome P450 2C9 (Homo sapiens, UniProt P11712)
Chain of Cytochrome P450 2C9 (P11712 whole entry): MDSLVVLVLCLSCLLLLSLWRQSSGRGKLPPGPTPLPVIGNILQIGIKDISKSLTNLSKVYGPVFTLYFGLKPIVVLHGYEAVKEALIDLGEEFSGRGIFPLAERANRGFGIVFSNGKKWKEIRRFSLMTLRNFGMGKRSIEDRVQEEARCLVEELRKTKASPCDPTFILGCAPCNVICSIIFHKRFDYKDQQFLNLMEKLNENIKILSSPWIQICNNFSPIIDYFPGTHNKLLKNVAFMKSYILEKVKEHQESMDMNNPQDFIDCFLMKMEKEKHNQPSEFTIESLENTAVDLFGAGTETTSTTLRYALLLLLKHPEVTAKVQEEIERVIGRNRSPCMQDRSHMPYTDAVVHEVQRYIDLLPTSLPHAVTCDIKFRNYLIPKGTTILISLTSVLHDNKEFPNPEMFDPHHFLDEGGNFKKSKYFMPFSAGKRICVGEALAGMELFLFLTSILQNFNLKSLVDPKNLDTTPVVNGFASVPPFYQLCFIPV

[4] = viability loss of HMLE_sh_eGFP cells – cell-based, luminescence, counter-screen for HMLE_sh_ECad selective toxicity project, dose response (AID 463074); assay type: functional, Homo sapiens;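 note: HMLE human mammary epithelial cells expressing control shRNA against eGFP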
[5] = viability of uninfected HEp-2 cells – cell-based, HTS, cytotoxicity control for RSV inhibitor project, dose response (AID 2410); assay type: functional; conditions: human respiratory syncytial virus
ELAV-like protein 1 = ELAV-like protein 1 (Homo sapiens, UniProt Q15717); assay: Identify HuR specific inhibitors.; assay type: functional
Chain of ELAV-like protein 1 (Q15717 whole entry): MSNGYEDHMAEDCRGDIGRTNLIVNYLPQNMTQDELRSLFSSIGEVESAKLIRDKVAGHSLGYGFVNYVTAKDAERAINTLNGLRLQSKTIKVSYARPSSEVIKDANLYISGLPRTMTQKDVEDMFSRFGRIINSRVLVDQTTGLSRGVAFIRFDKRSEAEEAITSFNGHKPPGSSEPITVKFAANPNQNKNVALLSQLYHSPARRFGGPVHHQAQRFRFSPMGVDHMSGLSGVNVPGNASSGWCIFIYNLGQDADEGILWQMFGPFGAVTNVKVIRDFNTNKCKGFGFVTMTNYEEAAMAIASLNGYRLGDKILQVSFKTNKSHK

[6] = target: T2, Histone-lysine N-methyltransferase NSD2 (Homo sapiens, UniProt O96028); assay type: biochemical
T2 sequence (O96028 whole entry): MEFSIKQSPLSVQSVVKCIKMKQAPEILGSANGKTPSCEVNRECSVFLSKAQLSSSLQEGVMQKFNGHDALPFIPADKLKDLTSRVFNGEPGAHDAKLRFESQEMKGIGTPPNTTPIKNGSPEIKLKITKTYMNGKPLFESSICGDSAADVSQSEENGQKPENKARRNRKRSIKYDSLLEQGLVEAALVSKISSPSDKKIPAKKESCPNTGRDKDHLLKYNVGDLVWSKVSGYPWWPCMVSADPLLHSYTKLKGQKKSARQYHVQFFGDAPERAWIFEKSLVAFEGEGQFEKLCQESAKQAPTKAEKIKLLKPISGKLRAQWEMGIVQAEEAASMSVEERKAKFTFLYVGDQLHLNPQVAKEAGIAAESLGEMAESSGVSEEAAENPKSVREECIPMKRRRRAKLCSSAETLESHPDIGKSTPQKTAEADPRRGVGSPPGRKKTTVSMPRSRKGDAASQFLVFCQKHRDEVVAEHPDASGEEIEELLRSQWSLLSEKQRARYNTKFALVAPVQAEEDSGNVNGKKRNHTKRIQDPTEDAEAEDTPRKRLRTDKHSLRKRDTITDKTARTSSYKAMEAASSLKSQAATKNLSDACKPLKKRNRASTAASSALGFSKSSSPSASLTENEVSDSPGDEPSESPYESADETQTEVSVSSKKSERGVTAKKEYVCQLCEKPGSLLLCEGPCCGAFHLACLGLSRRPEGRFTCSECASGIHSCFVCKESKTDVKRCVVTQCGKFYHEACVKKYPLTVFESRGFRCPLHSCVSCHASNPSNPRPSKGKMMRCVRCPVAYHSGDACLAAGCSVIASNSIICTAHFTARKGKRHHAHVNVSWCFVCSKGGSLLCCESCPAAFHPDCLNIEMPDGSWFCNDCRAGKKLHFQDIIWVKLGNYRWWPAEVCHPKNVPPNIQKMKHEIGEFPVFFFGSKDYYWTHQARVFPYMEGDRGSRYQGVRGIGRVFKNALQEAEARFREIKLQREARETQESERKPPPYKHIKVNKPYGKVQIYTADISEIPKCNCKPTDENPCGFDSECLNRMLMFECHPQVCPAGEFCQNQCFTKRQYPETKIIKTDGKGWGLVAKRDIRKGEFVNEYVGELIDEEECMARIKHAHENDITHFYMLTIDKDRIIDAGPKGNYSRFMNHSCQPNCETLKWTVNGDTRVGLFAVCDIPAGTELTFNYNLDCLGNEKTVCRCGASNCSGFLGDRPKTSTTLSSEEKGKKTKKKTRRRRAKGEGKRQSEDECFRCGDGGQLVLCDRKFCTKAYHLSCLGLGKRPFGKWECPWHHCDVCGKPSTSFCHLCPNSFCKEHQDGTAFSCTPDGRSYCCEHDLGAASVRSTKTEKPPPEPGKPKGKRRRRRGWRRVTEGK

ORF 73 = ORF 73 (Human herpesvirus 8, UniProt O40947); assay: KSHV LANA DNA-binding disruption – biochemical, fluorescence polarization, cherry-picked samples, dose response (AID 504725); design: species or system Human gammaherpesvirus 8;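 note: fluorescence polarization of a labeled DNA duplex reporting LANA DNA binding; potency is for inhibitors that block LANA binding to the DNA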
[7] = target: T3, Small ubiquitin-related modifier 1 (Homo sapiens, UniProt P63165); assay: SUMO1 protein-protein binding blockers, potency – biochemical, FRET, dose response (AID 624383); assay type: functional; conditions: read-out: IC50_Mean
T3 sequence (P63165 whole entry): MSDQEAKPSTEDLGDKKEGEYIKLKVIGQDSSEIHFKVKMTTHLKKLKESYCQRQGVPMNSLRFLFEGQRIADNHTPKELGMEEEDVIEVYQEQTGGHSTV

[8] = target: T4, Rac GTPase-activating protein 1 (Homo sapiens, UniProt Q9H0H5); assay: blockers of MgcRacGAP-driven Rac1 GTP hydrolysis – biochemical, ADP Hunter fluorescence, primary and confirmatory, confirmation (AID 624330); assay type: functional
T4 sequence (Q9H0H5 whole entry): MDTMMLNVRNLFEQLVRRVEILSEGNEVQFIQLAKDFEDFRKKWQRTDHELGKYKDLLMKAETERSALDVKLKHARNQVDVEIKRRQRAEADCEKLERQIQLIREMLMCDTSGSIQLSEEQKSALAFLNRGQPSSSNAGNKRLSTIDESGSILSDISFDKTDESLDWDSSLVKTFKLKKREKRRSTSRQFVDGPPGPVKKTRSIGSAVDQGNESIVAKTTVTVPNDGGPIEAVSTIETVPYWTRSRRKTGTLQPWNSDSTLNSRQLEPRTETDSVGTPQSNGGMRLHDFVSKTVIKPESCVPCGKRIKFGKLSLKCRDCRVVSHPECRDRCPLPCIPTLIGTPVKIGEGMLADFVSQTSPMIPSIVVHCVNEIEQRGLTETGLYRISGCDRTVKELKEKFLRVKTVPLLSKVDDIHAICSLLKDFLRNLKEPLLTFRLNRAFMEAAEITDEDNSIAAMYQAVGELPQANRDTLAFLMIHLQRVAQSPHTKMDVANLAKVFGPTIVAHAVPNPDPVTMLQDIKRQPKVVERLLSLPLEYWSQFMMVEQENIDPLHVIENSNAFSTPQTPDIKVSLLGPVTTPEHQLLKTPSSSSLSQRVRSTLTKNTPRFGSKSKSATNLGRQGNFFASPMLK

[9] = target: Glucose-6-phosphate 1-dehydrogenase (Homo sapiens, UniProt P11413); assay: inhibition of Homo sapiens G6PD, dose series – biochemical, fluorescence, selectivity assay for P. falciparum G6PD inhibitor project, dose response (AID 504792); assay type: functional
Chain of Glucose-6-phosphate 1-dehydrogenase (P11413 whole entry): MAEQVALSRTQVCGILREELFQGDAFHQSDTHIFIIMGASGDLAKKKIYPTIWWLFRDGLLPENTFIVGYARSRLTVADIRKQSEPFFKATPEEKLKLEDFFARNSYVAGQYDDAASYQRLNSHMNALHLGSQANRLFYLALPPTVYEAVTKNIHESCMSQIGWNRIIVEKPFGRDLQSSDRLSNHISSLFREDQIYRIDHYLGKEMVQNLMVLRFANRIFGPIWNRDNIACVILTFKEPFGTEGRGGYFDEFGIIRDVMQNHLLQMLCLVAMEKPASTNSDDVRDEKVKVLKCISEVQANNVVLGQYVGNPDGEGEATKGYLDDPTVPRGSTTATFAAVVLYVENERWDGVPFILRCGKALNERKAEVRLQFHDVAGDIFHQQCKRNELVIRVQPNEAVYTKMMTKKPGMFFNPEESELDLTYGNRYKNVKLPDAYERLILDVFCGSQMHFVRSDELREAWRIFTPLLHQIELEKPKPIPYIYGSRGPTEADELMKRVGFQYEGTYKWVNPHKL

Genome polyprotein = Genome polyprotein (dengue virus type 2, UniProt P29990); assay: flavivirus cap methylation enzyme inhibition – biochemical, confirmation dose response, primary screen (AID 588689); assay type: functional
[10] = target: T3, Small ubiquitin-related modifier 1; assay: SUMO1 protein interaction blockers, potency – biochemical, fluorescence polarization, uHTS hits, dose response (AID 624382); assay type: functional; conditions: read-out: IC50_Mean
Keap1/Nrf2 = Keap1/Nrf2 (Homo sapiens, UniProt Q14145); assay: disruptors of Keap1 binding to Nrf2 peptide – biochemical, fluorescence polarization, cherry-picked samples, dose response (AID 588683)
Chain of Keap1/Nrf2 (Q16236 whole entry): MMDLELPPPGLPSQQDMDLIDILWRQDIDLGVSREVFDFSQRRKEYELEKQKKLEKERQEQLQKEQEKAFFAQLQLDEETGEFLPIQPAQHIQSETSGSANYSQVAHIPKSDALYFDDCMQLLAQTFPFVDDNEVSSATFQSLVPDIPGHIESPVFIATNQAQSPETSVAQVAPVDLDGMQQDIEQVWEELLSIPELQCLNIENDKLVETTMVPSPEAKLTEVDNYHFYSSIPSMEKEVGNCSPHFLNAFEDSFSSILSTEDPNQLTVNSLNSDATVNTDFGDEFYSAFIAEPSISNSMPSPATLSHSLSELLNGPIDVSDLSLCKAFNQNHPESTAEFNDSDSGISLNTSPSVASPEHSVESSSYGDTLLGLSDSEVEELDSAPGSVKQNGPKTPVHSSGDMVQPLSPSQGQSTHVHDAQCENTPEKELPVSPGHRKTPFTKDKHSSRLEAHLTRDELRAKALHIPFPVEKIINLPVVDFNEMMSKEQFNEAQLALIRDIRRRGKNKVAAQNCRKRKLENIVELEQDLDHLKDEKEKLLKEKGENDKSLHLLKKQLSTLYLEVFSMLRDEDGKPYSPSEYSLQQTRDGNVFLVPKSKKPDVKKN
Chain of Keap1/Nrf2 (Q14145 whole entry): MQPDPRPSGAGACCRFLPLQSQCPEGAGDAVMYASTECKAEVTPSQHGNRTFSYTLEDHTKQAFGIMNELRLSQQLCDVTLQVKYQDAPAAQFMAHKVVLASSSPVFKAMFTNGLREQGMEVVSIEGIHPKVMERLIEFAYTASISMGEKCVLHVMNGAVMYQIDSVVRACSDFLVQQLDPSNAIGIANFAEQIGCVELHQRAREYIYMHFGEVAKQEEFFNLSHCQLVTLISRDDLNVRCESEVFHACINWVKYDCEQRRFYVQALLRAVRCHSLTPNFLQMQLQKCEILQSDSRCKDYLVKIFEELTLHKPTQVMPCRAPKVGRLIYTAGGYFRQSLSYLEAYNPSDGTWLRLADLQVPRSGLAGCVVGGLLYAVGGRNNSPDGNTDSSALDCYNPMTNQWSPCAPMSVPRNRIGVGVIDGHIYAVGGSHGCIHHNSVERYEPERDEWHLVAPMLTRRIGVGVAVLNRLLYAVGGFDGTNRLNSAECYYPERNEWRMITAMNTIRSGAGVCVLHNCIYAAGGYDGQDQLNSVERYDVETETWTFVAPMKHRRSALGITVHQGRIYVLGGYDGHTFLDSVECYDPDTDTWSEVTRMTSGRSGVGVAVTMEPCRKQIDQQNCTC

HeLa = assay: viability loss in HeLa cells – cell-based, 24 h, cherry-picked samples, cytotoxicity control, dose response (AID 504726); assay type: functional; conditions: Homo sapiens;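 note: potency for cytotoxicity as loss of luminescence signal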
[11] = target: RNA-editing ligase 1, mitochondrial (Trypanosoma brucei brucei, UniProt P86926); assay: inhibition of trypanosome RNA editing ligase – biochemical, fluorescence, Trypanosoma brucei, dose response (AID 1117295); assay type: functional
Chain of RNA-editing ligase 1, mitochondrial (P86926 whole entry): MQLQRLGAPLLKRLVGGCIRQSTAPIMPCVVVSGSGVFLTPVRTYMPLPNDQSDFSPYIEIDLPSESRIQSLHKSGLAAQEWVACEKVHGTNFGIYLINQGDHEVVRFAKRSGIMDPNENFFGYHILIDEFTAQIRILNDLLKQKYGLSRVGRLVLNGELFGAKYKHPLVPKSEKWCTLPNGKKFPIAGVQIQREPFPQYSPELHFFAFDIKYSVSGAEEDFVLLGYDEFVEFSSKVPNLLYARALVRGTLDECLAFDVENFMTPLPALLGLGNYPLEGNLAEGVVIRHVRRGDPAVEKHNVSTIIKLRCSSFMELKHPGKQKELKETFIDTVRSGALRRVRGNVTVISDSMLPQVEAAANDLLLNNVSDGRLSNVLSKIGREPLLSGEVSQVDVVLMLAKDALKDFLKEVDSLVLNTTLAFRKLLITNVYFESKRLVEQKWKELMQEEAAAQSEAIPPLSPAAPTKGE

Candida albicans = assay: Candida growth inhibition combined with fluconazole – CaCi-2 strain, Alamar Blue, dry powder, set 3, dose response (AID 488907); assay type: functional, organism-based
[12] = alpha-synuclein stem-loop luciferase translation blockers – H4 neuroglioma cells, luminescence, confirmation (AID 1988); assay type: functional, cell-based
[13] = HEK-293T viability loss, compound-treated – cell-based, uHTS hits, cytotoxicity control for B/T-cell NF-kB inhibitor project, dose response (AID 489019); assay type: functional;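 note: IC50 reflects cytotoxicity as loss of cell viability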
Jurkat = assay: blockers of NF-kB activation in T cells – Jurkat, luciferase reporter, luminescence, B- and T-cell, dose response (AID 489004); assay type: functional, cell-based; conditions: Homo sapiens;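 note: NF-kB luciferase reporter Jurkat cells stimulated with PMA plus ionomycin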
[14] = target: T5, Microphthalmia-associated transcription factor (Homo sapiens, UniProt O75030); assay: reducers of TRPM1 reporter luminescence, concentration series – cell-based, SK-MEL-5, cherry-picked, set 3, MITF inhibitor project, dose response (AID 493073); assay type: functional;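 note: SK-MEL-5 melanoma cells with luciferase driven by the MITF target TRPM1 promoter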
T5 sequence (O75030 whole entry): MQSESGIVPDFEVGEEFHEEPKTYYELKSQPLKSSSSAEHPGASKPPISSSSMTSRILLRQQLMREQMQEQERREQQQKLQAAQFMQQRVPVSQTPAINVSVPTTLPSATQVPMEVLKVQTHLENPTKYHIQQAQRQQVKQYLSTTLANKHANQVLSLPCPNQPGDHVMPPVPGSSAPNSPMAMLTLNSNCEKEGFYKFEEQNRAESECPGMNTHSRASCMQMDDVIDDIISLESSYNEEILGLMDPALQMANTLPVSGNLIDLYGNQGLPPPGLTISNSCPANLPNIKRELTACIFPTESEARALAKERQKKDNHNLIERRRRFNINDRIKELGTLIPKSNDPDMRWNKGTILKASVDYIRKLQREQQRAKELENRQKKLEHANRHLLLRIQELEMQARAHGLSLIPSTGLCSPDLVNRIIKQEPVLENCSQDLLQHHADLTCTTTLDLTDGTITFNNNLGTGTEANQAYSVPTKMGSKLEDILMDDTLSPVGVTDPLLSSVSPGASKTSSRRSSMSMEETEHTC

[15] = fluconazole-exposed Candida albicans growth modulators – fluorescence, retest, confirmation (AID 2467); assay type: functional, cell-based
[16] = luciferase reporter signal suppression in cells – H4 neuroglioma cells, luminescence, dose response (AID 1990); assay type: functional, cell-based
[17] = Luminescence Cell-Based Dose Response HTS to Identify Inhibitors of 5'UTR Stem-Loop Driven Prion Protein mRNA Translation in H4 Neuroglioblastoma Cells. [Related pubchem assays: 1827 (Project Summary), 1813 (Primary HTS)]; assay type: functional
[18] = NIH-3T3 fibroblast cytotoxicity, dose response, cytotoxicity control, cell-based, fluorescence, Alamar Blue, secondary assay (AID 2327); assay type: functional;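 note: NIH-3T3 mouse fibroblasts cultured with fluconazole at 8 µg/mL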
[19] = blockers of HIV-1 envelope-mediated cell-cell fusion – cherry-pick, dose response (AID 652057); assay type: functional, cell-based
[20] = viability of HCT116 lacking mutant beta-catenin – cell-based, human colon tumor, dose response (AID 1045); assay type: functional;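 note: HCT116 colon tumor cells with beta catenin knocked out; cells exposed to compound for 60 hours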
A-375 = assay: MITF: Counter assay: A375 proliferation Measured in Cell-Based System Using Plate Reader - 2084-03_Inhibitor_Dose_DryPowder_Activity. [Related pubchem assays (depositor defined):AID488944]; assay type: functional; conditions: Homo sapiens
[21] = HIV-1 AD8 envelope cell-cell fusion blockers – cherry-pick, dose response (AID 652062); assay type: functional, cell-based;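 note: luciferase signal from cell-cell fusion driven by HIV-1 clade B AD8 Env; potency is for inhibitors of fusion seen as a drop in luminescence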
[22] = viability of PTEN-deleted HCT116 cells – cell-based, HCT116 PTEN knockout, dose response (AID 1047); assay type: functional;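 note: HCT116 colon tumor cells with PTEN knocked out; cells exposed to compound for 60 hours before readout; potency for loss of cell viability measured by luminescence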
[23] = blockers of HIV-1 ZM109 envelope-driven cell-cell fusion – HeLa effector, CEM target cells, luciferase, cherry-pick, dose response (AID 652058); assay type: functional, cell-based;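 note: luciferase signal from HIV-1 Env mediated cell-cell fusion of effector and target cells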
INS1 = assay: INS-1E survival protection against cytokine death – cell-based, luminescence, retest, dose response (AID 449756); assay type: functional;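 note: cell death triggered by IL-1 beta plus TNF-alpha plus IFN-gamma mixture; protective hits raise ATP signal compared with cytokine alone wells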
[24] = viability loss in CEM21 cells – cell-based, CellTiter-Glo luminescence, cherry-picked, cytotoxicity control for viral fusion inhibitor project, dose response (AID 652042); assay type: functional;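 note: potency for signal decrease meaning cytotoxicity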

Chain of Beta-adrenergic receptor kinase 1 (P25098 whole entry, the tested form may be a part): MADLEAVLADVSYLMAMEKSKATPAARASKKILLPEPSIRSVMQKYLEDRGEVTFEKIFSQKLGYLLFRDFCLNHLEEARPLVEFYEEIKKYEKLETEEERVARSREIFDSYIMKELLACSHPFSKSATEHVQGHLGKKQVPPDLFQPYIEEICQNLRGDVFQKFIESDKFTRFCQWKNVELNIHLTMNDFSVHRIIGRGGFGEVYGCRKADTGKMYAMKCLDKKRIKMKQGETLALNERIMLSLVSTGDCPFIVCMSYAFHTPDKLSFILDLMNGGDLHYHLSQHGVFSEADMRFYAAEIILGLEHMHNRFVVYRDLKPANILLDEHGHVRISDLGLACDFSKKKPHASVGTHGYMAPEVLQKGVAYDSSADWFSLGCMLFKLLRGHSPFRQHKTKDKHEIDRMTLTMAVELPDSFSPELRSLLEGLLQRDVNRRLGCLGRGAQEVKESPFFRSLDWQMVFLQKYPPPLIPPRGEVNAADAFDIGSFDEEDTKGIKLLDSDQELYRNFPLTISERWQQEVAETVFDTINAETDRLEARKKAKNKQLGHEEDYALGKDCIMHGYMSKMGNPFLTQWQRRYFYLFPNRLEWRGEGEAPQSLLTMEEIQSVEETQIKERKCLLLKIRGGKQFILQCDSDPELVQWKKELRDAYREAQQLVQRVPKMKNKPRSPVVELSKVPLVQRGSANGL

O=C(CCS(=O)(=O)c1ccc(Br)cc1)Nc1cc(F)ccc1F
EC50 [1]: 2.47 µM (active)
IC50 [2]: 7.86 µM (active)

O=C(Nc1cccc2ccccc12)c1nn(C23CC4CC(CC(C4)C2)C3)cc1Br
AC50 (Cytochrome P450 2D6): inconclusive
AC50 [3]: 1.83 µM (active)
AC50 (Cytochrome P450 2C19): 2.24 µM (inconclusive)
AC50 (Cytochrome P450 2C9): inconclusive
AC50 [4]: 40.6 µM (active)
CC50 [5]: 27.8 µM (active)

O=C(O)c1cc(N2C(=O)C=CC2=O)cc(N2C(=O)C=CC2=O)c1
IC50 (ELAV-like protein 1): 26.9 µM (inactive)
AC50 [6]: 6.9 µM (active)
AC50 (ORF 73): 94.5 µM (active)
IC50 [7]: 13.7 µM (active)
IC50 [8]: 19.7 µM (active)
IC50 [9]: 61.8 µM (inactive)
IC50 (Genome polyprotein): 19.6 µM (active)
IC50 [10]: > 66.6 µM (inactive)
AC50 (Keap1/Nrf2): 19 µM (active)
AC50 (HeLa): > 350 µM (inactive)
IC50 [11]: 12.3 µM (inactive)

O=C(C1CCCCC1)N1CCN(c2ccccn2)CC1
AC50 (Candida albicans): 398 nM (active)

COc1cc([N+](=O)[O-])cc(/C=N/NC(=O)c2ccc(NC(=O)c3ccc(C)cc3)cc2)c1O
EC50 [12]: 1.88 µM (active)
IC50 [13]: > 80 µM (inactive)
IC50 (Jurkat): 6.36 µM (active)
AC50 [14]: 1.55 µM (active)
EC50 [15]: 1.49 µM (active)
EC50 [16]: 2.62 µM (active)
EC50 [17]: 2.62 µM (active)
EC50 [18]: 1.01 µM (inconclusive)

CC1CCC(C(C)C)C(OC(=O)Cn2c(-c3ccccc3)[n+](C)c3ccccc32)C1 (stereo not drawn)
AC50 [19]: 6.82 µM (active)
EC50 [20]: 2.97 µM (active)
AC50 (A-375): 41.3 µM (active)
AC50 [21]: 5.44 µM (active)
EC50 [22]: 3.06 µM (active)
AC50 [14]: 2.37 µM (active)
AC50 [23]: 4.62 µM (active)
AC50 (INS1; Rattus norvegicus, INS1): 3.2 µM (active)
AC50 (INS1; ins1): 2.71 µM (active)
AC50 [24]: 8.36 µM (active)
